Assay results as given in patent US11168078B2, “Sulfoximine, sulfonimidamide, sulfondiimine and diimidosulfonamide compounds as inhibitors of indoleamine 2,3-dioxygenase” (Shanghai Fochon Pharmaceutical Co., Ltd., priority 2016, dated 2021).

target: T1, IDO (Homo sapiens, UniProt P14902); assay: IDO Cell-Based NEK Green Assay (NFK Green, N-formyl kynurenine level); conditions: Hela cells, 1 mM L-Tryptophan, 100 ng/mL recombinant human interferon-gamma, 2 days, NFK Green fluorescence
T1 construct: endogenous in cells; host or cells: HeLa cells stimulated with recombinant human interferon-gamma
Experimental: IDO Cell-Based NEK Green Assay
Materials: RPMI 1640 (phenol red free) (Invitrogen Cat. No. 11835030), Fetal Bovine Serum (Invitrogen Cat. No. 10099141), Penicillin-Streptomycin (Invitrogen Gibco Cat. No. 15140-122), Cellular assay kit (NTRC, Cat. No. NTRC-GSCell-1K), DMSO (Sigma, Cat. No. D2650), 384 wells_compound plate (Greiner, Cat. No. 781280), 384 wells_assay plate (Greiner, Cat. No. 781091)
The concentrations of test compounds varied from 5 μM to 0.76 nM with 3-fold dilution, 10 points, in duplicates.
Hela cells were seeded at 8,000 cells per well with RPMI/phenol red free media containing 10% FBS in a 384-well tissue culture plate. Mixture of compounds and 1 mM L-Tryptophan were added to cells; and then the recombinant human interferon-gamma was added at the final concentration of 100 ng/mL to activate IDO signaling. The cells were incubated for 2 days in 37° C. incubator with 5% CO2. After that, NFK Green was used to detect the N-formyl kynurenine level by following the commercial kit instruction. The fluorescent signal was measured by Envision plate Reader (excitation, 400/25; emission, 510/20). Curves are fit by XLFIT5 as % inhibition vs. log [compound concentration] using a 4 parameters logistic model 205.
Select compounds prepared as described above were assayed according to the biological procedures described herein.

T1 sequence (P14902 whole entry): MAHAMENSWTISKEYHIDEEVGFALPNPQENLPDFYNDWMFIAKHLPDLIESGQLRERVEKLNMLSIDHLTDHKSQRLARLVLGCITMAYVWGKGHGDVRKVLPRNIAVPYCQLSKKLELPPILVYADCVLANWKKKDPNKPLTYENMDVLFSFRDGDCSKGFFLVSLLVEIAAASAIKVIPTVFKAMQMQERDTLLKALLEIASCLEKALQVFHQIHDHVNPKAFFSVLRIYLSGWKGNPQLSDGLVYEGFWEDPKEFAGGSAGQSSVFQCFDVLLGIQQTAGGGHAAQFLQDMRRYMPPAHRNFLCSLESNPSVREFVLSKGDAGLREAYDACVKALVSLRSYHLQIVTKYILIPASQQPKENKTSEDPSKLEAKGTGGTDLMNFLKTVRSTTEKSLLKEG

IC50 | Molecule
0.238 µM | C#Cc1cc(N/C(=N\O)c2nonc2NCCS(C)(=N)=N)ccc1F [Example 43, (Z)-4-({2-[diimino(methyl)-λ^6-sulfanyl]ethyl}amino)-N-(3-ethynyl-4-fluorophenyl)-N′-hydroxy-1,2,5-oxadiazole-3-carboximidamide]
0.0467 µM | CS(=N)(=N)CCCNc1nonc1/C(=N/O)Nc1ccc(F)c(Br)c1 [Example 36, (Z)-N-(3-bromo-4-fluorophenyl)-4-({3-[diimino(methyl)-λ^6-sulfanyl]propyl}amino)-N′-hydroxy-1,2,5-oxadiazole-3-carboximidamide]
0.0644 µM | O=S1(=NCCCNc2nonc2/C(=N/O)Nc2ccc(F)c(Cl)c2)CCC1 [Example 32, (Z)-N-(3-chloro-4-fluorophenyl)-N′-hydroxy-4-((3-((1-oxido-1λ^6-thietan-1-ylidene)amino)propyl)amino)-1,2,5-oxadiazole-3-carboximidamide]
0.0209 µM | COCCS(=N)(=N)CCNc1nonc1/C(=N/O)Nc1ccc(F)c(Br)c1 [Example 41, (Z)-N-(3-bromo-4-fluorophenyl)-4-({2-[diimino(2-methoxyethyl)-λ^6-sulfanyl]ethyl}amino)-N′-hydroxy-1,2,5-oxadiazole-3-carboximidamide]
0.0391 µM | N=S(=N)(CCO)CCNc1nonc1/C(=N/O)Nc1ccc(F)c(Br)c1 [Example 40, (Z)-N-(3-bromo-4-fluorophenyl)-N′-hydroxy-4-({2-[(2-hydroxyethyl)diimino-λ^6-sulfanyl]ethyl}amino)-1,2,5-oxadiazole-3-carboximidamide]
0.0163 µM | C#Cc1cc(N/C(=N\O)c2nonc2NCCNS(=N)(=O)CC)ccc1F (stereo not drawn) [Example 21, (Z)-4-((2-(ethylsulfonoamidimidamido)ethyl)amino)-N-(3-ethynyl-4-fluorophenyl)-N′-hydroxy-1,2,5-oxadiazole-3-carboximidamide]
0.0265 µM | C#Cc1cc(N/C(=N\O)c2nonc2NCCN=S(C)(C)=O)ccc1F [Example 29, (Z)-4-((2-((dimethyl(oxo)-λ^6-sulfanylidene)amino)ethyl)amino)-N-(3-ethynyl-4-fluoro-phenyl)-N′-hydroxy-1,2,5-oxadiazole-3-carboximidamide]
0.0205 µM | CCS(=N)(=N)CCCNc1nonc1/C(=N/O)Nc1ccc(F)c(Br)c1 [Example 37, (Z)-N-(3-bromo-4-fluorophenyl)-4-{[3-(ethyldiimino-λ^6-sulfanyl)propyl]amino}-N′-hydroxy-1,2,5-oxadiazole-3-carboximidamide]
0.0175 µM | CCS(=N)(=O)NCCNc1nonc1/C(=N/O)Nc1ccc(F)c(Cl)c1 (stereo not drawn) [Example 25, (Z)-N-(3-chloro-4-fluorophenyl)-4-((2-(ethylsulfonoamidimidamido)ethyl)amino)-N′-hydroxy-1,2,5-oxadiazole-3-carboximidamide]
0.0106 µM | CN=S(=O)(CCCNc1nonc1/C(=N/O)Nc1ccc(F)c(Br)c1)NC (stereo not drawn) [Example 17, (Z)—N-(3-bromo-4-fluorophenyl)-4-((3-(N,N′-dimethylsulfamidimidoyl)propyl)amino)-N′-hydroxy-1,2,5-oxadiazole-3-carboximidamide]
0.0735 µM | C#Cc1cc(N/C(=N\O)c2nonc2NCCS(=N)(=N)CC)ccc1F [Example 44, (Z)-4-{[2-(ethyldiimino-λ^6-sulfanyl)ethyl]amino}-N-(3-ethynyl-4-fluorophenyl)-N′-hydroxy-1,2,5-oxadiazole-3-carboximidamide]
0.0523 µM | N=S(=N)(CCNc1nonc1/C(=N/O)Nc1ccc(F)c(Br)c1)C1CC1 [Example 39, (Z)-N-(3-bromo-4-fluorophenyl)-4-{[2-(cyclopropyldiimino-λ^6-sulfanyl)ethyl]amino}-N′-hydroxy-1,2,5-oxadiazole-3-carboximidamide]
0.0133 µM | CC(C)S(=N)(=N)CCNc1nonc1/C(=N/O)Nc1ccc(F)c(Br)c1 [Example 38, (Z)-N-(3-bromo-4-fluorophenyl)-4-({2-[diimino(propan-2-yl)-λ^6-sulfanyl]ethyl}amino)-N′-hydroxy-1,2,5-oxadiazole-3-carboximidamide]
0.0122 µM | CS(=N)(=N)CCNc1nonc1/C(=N/O)Nc1ccc(F)c(Br)c1 [Example 20, (Z)—N-(3-bromo-4-fluorophenyl)-4-({2-[diimino(methyl)-λ^6-sulfanyl]ethyl}amino)-N′-hydroxy-1,2,5-oxadiazole-3-carboximidamide]
0.0165 µM | CCS(=N)(=O)NCCCNc1nonc1/C(=N/O)Nc1ccc(F)c(Cl)c1 (stereo not drawn) [Example 27, (Z)-N-(3-chloro-4-fluorophenyl)-4-[(3-ethanesulfonoimidamidopropyl)amino]-N′-hydroxy-1,2,5-oxadiazole-3-carboximidamide]
0.196 µM | CCS(=N)(=N)CCNc1nonc1/C(=N/O)Nc1ccc(F)c(C#N)c1 [Example 42, (Z)-N-(3-cyano-4-fluorophenyl)-4-{[2-(ethyldiimino-λ^6-sulfanyl)ethyl]amino}-N′-hydroxy-1,2,5-oxadiazole-3-carboximidamide]
0.0275 µM | CN=S(C)(=O)NCCNc1nonc1/C(=N/O)Nc1ccc(F)c(Cl)c1 (stereo not drawn) [Example 22, (Z)-N-(3-chloro-4-fluorophenyl)-N′-hydroxy-4-((2-(N′-methylmethylsulfonoamidimidamido)ethyl)amino)-1,2,5-oxadiazole-3-carboximidamide]
0.0133 µM | (Z)—N-(3-ethynyl-4-fluorophenyl)-N′-hydroxy-4-((2-(methylsulfonoamidimidamido)ethyl)amino)-1,2,5-oxadiazole-3-carboximidamide [Example 19]
0.112 µM | CS(C)(=O)=NCCCNc1nonc1/C(=N/O)Nc1ccc(F)c(Cl)c1 [Example 31, (Z)-N-(3-chloro-4-fluorophenyl)-4-((3-((dimethyl(oxo)-λ^6-sulfanylidene)amino)propyl)amino)-N′-hydroxy-1,2,5-oxadiazole-3-carboximidamide]
0.0232 µM | CN=S(=O)(CCCNc1nonc1/C(=N/O)Nc1ccc(F)c(Cl)c1)NC (stereo not drawn) [Example 18, (Z)—N-(3-chloro-4-fluorophenyl)-4-((3-(N,N′-dimethylsulfamidimidoyl)propyl)amino)-N′-hydroxy-1,2,5-oxadiazole-3-carboximidamide]
0.0636 µM | CS(C)(=O)=NCCCNc1nonc1/C(=N/O)Nc1ccc(F)c(Br)c1 [Example 30, (Z)-N-(3-bromo-4-fluorophenyl)-4-((3-((dimethyl(oxo)-λ^6-sulfanylidene)amino)propyl)amino)-N′-hydroxy-1,2,5-oxadiazole-3-carboximidamide]
0.0332 µM | CCS(=O)(=NC)NCCNc1nonc1/C(=N/O)Nc1ccc(F)c(Cl)c1 (stereo not drawn) [Example 23, (Z)-N-(3-chloro-4-fluorophenyl)-N′-hydroxy-4-((2-(N′-methylethylsulfonoamidimidamido)ethyl)amino)-1,2,5-oxadiazole-3-carboximidamide]
0.0097 µM | CCS(=N)(=N)CCNc1nonc1/C(=N/O)Nc1ccc(F)c(Br)c1 [Example 34, (Z)-N-(3-bromo-4-fluorophenyl)-4-{[2-(ethyldiimino-λ^6-sulfanyl)ethyl]amino}-N′-hydroxy-1,2,5-oxadiazole-3-carboximidamide]
0.0239 µM | CCS(=O)(=NC)NCCNc1nonc1/C(=N/O)Nc1ccc(F)c(Br)c1 (stereo not drawn) [Example 33, (Z)-N-(3-bromo-4-fluorophenyl)-N′-hydroxy-4-((2-(N′-methylethylsulfonoamidimidamido)ethyl)amino)-1,2,5-oxadiazole-3-carboximidamide]
